SMILES strings stand for the structures.

p53-MDM2 interaction (GST-MDM2 protein aa 23-117 / biotinylated p53 wt peptide), sequence (Q00987 23-117): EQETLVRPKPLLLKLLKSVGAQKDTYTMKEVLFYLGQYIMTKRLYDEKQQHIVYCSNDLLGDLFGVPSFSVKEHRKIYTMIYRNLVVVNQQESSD

The first data set has as its target p53-MDM2 interaction (GST-MDM2 protein aa 23-117 / biotinylated p53 wt peptide) (Homo sapiens (Human), UniProt Q00987). In words: Mdm2-p53 Inhibition AlphaScreen. Type of data set: binding. The note with it: GST-MDM2 (aa 23-117) / biotinylated p53 wt peptide.
The IC50 is the concentration needed to halve the response being measured. A lower IC50 goes with greater potency in that assay. In the case of `NCCNC(=O)c1ccc2c(c1)nc1n2CC[C@H]2[C@@H]1[C@H](c1cccc(Cl)c1F)[C@]1(C(=O)Nc3cc(Cl)ccc31)N2CC1CC1` [Ib-222], the IC50 was determined as 9 nM.
As to `CN(C)CCNC(=O)c1ccc2c(c1)nc1n2CC[C@H]2[C@@H]1[C@H](c1cccc(Cl)c1F)[C@]1(C(=O)Nc3cc(Cl)ccc31)N2CC1CC1` [Ib-223], the IC50 came out at 5 nM.
Same read-out and setting: the figure for `CC1(NC(=O)c2ccc3c(c2)nc2n3CC[C@H]3[C@@H]2[C@H](c2cccc(Cl)c2F)[C@]2(C(=O)Nc4cc(Cl)ccc42)N3CC2CC2)COC1` [Ib-225] is 5 nM.
The same measure, in the same setting: the figure for `CC1(CNC(=O)c2ccc3c(c2)nc2n3CC[C@H]3[C@@H]2[C@H](c2cccc(Cl)c2F)[C@]2(C(=O)Nc4cc(Cl)ccc42)N3CC2CC2)COC1` [Ib-226] is 5 nM; for `O=C(c1ccc2c(c1)nc1n2CC[C@H]2[C@@H]1[C@H](c1cccc(Cl)c1F)[C@]1(C(=O)Nc3cc(Cl)ccc31)N2CC1CC1)N1CC(O)C1` [Ib-227] it is 4 nM.
Compound `CN1CC(NC(=O)c2ccc3c(c2)nc2n3CC[C@H]3[C@@H]2[C@H](c2cccc(Cl)c2F)[C@]2(C(=O)Nc4cc(Cl)ccc42)N3CC2CC2)C1` [Ib-228] registered an IC50 of 5 nM.
Compound `O=C(NC1COCC1O)c1ccc2c(c1)nc1n2CC[C@H]2[C@@H]1[C@H](c1cccc(Cl)c1F)[C@]1(C(=O)Nc3cc(Cl)ccc31)N2CC1CC1` (stereo partly shown) [Ib-229] returned an IC50 of 4 nM.
In turn, `CN(O)C(=O)c1ccc2c(c1)nc1n2CC[C@H]2[C@@H]1[C@H](c1cccc(Cl)c1F)[C@]1(C(=O)Nc3cc(Cl)ccc31)N2CC1CC1` [Ib-230] registered an IC50 of 10 nM.
Take `O=C(NO)c1ccc2c(c1)nc1n2CC[C@H]2[C@@H]1[C@H](c1cccc(Cl)c1F)[C@]1(C(=O)Nc3cc(Cl)ccc31)N2CC1CC1` [Ib-231]: the IC50 came to 4 nM.
Consider `CC(C)CN1[C@H]2CCn3c(nc4cc(C(N)=O)ccc43)[C@H]2[C@H](c2cccc(Cl)c2F)[C@]12C(=O)Nc1cc(Cl)ccc12` [Ib-232], for which the IC50 turned out to be 3 nM.
`CNC(=O)c1ccc2c(c1)nc1n2CC[C@H]2[C@@H]1[C@H](c1cccc(Cl)c1F)[C@]1(C(=O)Nc3cc(Cl)ccc31)N2CC(C)C` [Ib-233] displayed an IC50 of 4 nM.
The same measure, in the same setting: the figure for `CNC(=O)c1cc2nc3n(c2cc1OC)CC[C@H]1[C@@H]3[C@H](c2cccc(Cl)c2F)[C@]2(C(=O)Nc3cc(Cl)ccc32)N1CC1CC1` [Ib-235] is 3 nM; for `COc1cc2c(cc1C(=O)N(C)C)nc1n2CC[C@H]2[C@@H]1[C@H](c1cccc(Cl)c1F)[C@]1(C(=O)Nc3cc(Cl)ccc31)N2CC1CC1` [Ib-236] it is 5 nM; for `CNC(=O)c1cc2nc3n(c2cc1C)CC[C@H]1[C@@H]3[C@H](c2cccc(Cl)c2F)[C@]2(C(=O)Nc3cc(Cl)ccc32)N1CC1CC1` [Ib-237] it is 10 nM.
Turning to `NC(=O)c1ccc2nc3n(c2c1)CC[C@H]1[C@@H]3[C@H](c2cccc(Cl)c2F)[C@]2(C(=O)Nc3cc(Cl)ccc32)N1CC1CC1` [Ib-238], the IC50 was found to be 6 nM.
Same read-out and setting: the figure for `NC(=O)c1ccc2c(c1)nc1n2C[C@H]2[C@@H]1[C@H](c1cccc(Cl)c1F)[C@]1(C(=O)Nc3cc(Cl)ccc31)N2CC1CC1` [Ib-239] is 3 nM.
Still for that read-out and setting: the same measure for `CNC(=O)c1ccc2c(c1)nc1n2C[C@H]2[C@@H]1[C@H](c1cccc(Cl)c1F)[C@]1(C(=O)Nc3cc(Cl)ccc31)N2CC1CC1` [Ib-240]: 3 nM; for `CCOc1cccc(CN2[C@H]3Cn4c(nc5cc(C(N)=O)ccc54)[C@H]3[C@H](c3cccc(Cl)c3F)[C@]23C(=O)Nc2cc(Cl)ccc23)c1` [Ib-241]: 4 nM; for `CCOc1cccc(CN2[C@H]3Cn4c(nc5cc(C(N)=O)ccc54)[C@H]3[C@H](c3cccc(Cl)c3F)[C@]23C(=O)Nc2cc(Cl)ccc23)c1` [Ib-242]: 2 nM.
The compound `CCOc1cccc(CN2[C@@H]3Cn4c(nc5cc(C(N)=O)ccc54)[C@@H]3[C@@H](c3cccc(Cl)c3F)[C@@]23C(=O)Nc2cc(Cl)ccc23)c1` [Ib-243] came in with an IC50 of 99 nM.
`CCOc1cccc(CN2[C@H]3Cn4c(nc5cc(C(=O)NO)ccc54)[C@H]3[C@H](c3cccc(Cl)c3F)[C@]23C(=O)Nc2cc(Cl)ccc23)c1` [Ib-244]: half-maximal inhibition (IC50) was put at 3 nM.
With `O=C1Nc2cc(Cl)ccc2[C@@]12[C@@H](c1cccc(Cl)c1F)[C@@H]1c3nc4cc(CO)ccc4n3CC[C@@H]1N2CC1CC1` [Ib-245], the IC50 was determined as 20 nM.
As to `Nc1ccc2c(c1)nc1n2CC[C@H]2[C@@H]1[C@H](c1cccc(Cl)c1F)[C@]1(C(=O)Nc3cc(Cl)ccc31)N2CC1CC1` [Ib-247], the IC50 was 27 nM.
As to `O=C1Nc2cc(Cl)ccc2[C@@]12[C@@H](c1cccc(Cl)c1F)[C@@H]1c3nc4cc(N5CCCCC5)ccc4n3CC[C@@H]1N2CC1CC1` [Ib-249], the 50% inhibitory concentration (IC50) is 240 nM.
In turn, `O=C1Nc2cc(Cl)ccc2[C@@]12[C@@H](c1cccc(Cl)c1F)[C@@H]1c3nc4ccccc4n3CC[C@@H]1N2CC1CC1` [Ib-253] showed an IC50 of 72 nM.
For the compound `Cc1c(C(=O)O)ccn2c3c(nc12)[C@@H]1[C@H](C3)N(CC2CC2)[C@@]2(C(=O)Nc3cc(Cl)ccc32)[C@H]1c1ccnc(Cl)c1F` [Ic-23], the IC50 stood at 6 nM.
For the compound `CCOc1cccc(CN2[C@H]3Cc4c(nc5c(C)c(C(=O)O)ccn45)[C@H]3[C@H](c3ccnc(Cl)c3F)[C@]23C(=O)Nc2cc(Cl)ccc23)c1` [Ic-27], the IC50 turned out to be 13 nM.
With `Cc1c(C(=O)N(C)C)ccn2c3c(nc12)[C@@H]1[C@H](C3)N(CC2CC2)[C@@]2(C(=O)Nc3cc(Cl)ccc32)[C@H]1c1ccnc(Cl)c1F` [Ic-29], the IC50 was found to be 10 nM.
Consider `Cc1c(C(=O)N2CCCCC2)ccn2c3c(nc12)[C@@H]1[C@H](C3)N(CC2CC2)[C@@]2(C(=O)Nc3cc(Cl)ccc32)[C@H]1c1ccnc(Cl)c1F` [Ic-35], for which inhibition was half-maximal at 10 nM (IC50).
`Cc1c(C(=O)N2CCOCC2)ccn2c3c(nc12)[C@@H]1[C@H](C3)N(CC2CC2)[C@@]2(C(=O)Nc3cc(Cl)ccc32)[C@H]1c1ccnc(Cl)c1F` [Ic-37] displayed an IC50 of 10 nM.

A further data set deals with acute lymphoblastic leukemia (ALL) xenograft models with mixed-lineage leukemia (MLL) rearrangement.
Test: not given
The note with it: cited from earlier work.
Turning to `CCOc1cc(C(C)(C)C)ccc1C1=N[C@@](C)(c2ccc(Cl)cc2)[C@@](C)(c2ccc(Cl)cc2)N1C(=O)N1CCN(CCCS(C)(=O)=O)CC1` [RG-7112], the “efficacy in xenograft models” value was “particularly efficacious”.

Another data set has as its system solid tumor xenograft models.
Test: not given
The note with it: cited from earlier work.
For the compound `CCOc1cc(C(C)(C)C)ccc1C1=N[C@@](C)(c2ccc(Cl)cc2)[C@@](C)(c2ccc(Cl)cc2)N1C(=O)N1CCN(CCCS(C)(=O)=O)CC1` [RG-7112], the tumor growth inhibition entry is given as “induced tumor growth inhibition”.

Another data set concerns human acute myeloid leukemia (AML) and human prostate tumor xenograft models harboring p53 wild-type.
Test: not given
As to conditions: cited from earlier work.
Take `CCOc1cc(C(C)(C)C)ccc1C1=N[C@@](C)(c2ccc(Cl)cc2)[C@@](C)(c2ccc(Cl)cc2)N1C(=O)N1CCN(CCCS(C)(=O)=O)CC1` [RG7112]: the “antiproliferative and proapoptotic activity” value was “antiproliferative and proapoptotic activity”.

For a further data set, the system named is p53 wild-type vs. p53 mutant cell lines.
Test: not given
As to conditions: in vitro, PPTP of the NCI; cited from earlier work.
Turning to `CCOc1cc(C(C)(C)C)ccc1C1=N[C@@](C)(c2ccc(Cl)cc2)[C@@](C)(c2ccc(Cl)cc2)N1C(=O)N1CCN(CCCS(C)(=O)=O)CC1` [RG-7112], the “cytotoxic activity, median IC50” value is “lower median IC50 values for p53 wild-type vs. p53 mutant cell lines”.

(Values after patent publication US10717742B2, “Spiro[3H-indole-3,2′-pyrrolidin]-2(1H)-one compounds and derivatives as MDM2-P53 inhibitors” (Boehringer Ingelheim International GmbH, priority 2015, dated 2020).)
